Measured values published in patent publication EP3928779A1 (Chugai Seiyaku Kabushiki Kaisha, priority 2014, dated 2016).

System: rat small-intestinal brush border membrane vesicles
Experiment: Inhibitory effect on 33PO4 uptake into rat small-intestinal brush border membrane vesicles (rapid filtration method)
Format: biochemical
Conditions: 33PO4 uptake into rat small-intestinal BBMVs; test compound 1 µM; reacted for 60 seconds
Outline: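 Uptake of ^33PO4 was measured by rapid filtration and liquid scintillation counting of filter-retained vesicles, after quenching with ice-cold 110 mM NaCl/1 mM KH2PO4/10 mM HEPES pH 7.5. Vesicles were brush border membranes from the upper small intestine of female Wistar rats aged 4–5 weeks.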

Structure (SMILES)	Rate of uptake inhibition (%) (1 µM)
CN(C)CC(C)(C)COc1ccc(CN2C(=O)C(C(=O)Nc3ccc(C(F)(F)F)cc3-c3cc(C(F)(F)F)ncn3)=C(O)C3(CCCC3)N2C)c(F)c1F [Example 414, 7-(4-(3-(Dimethylamino)-2,2-dimethylpropoxy)-2,3-difluorobenzyl)-10-hydroxy-6-methyl-8-oxo-N-(4-(trifluoromethyl)-2-(6-(trifluoromethyl)pyrimidin-4-yl)phenyl)-6,7-diazaspiro[4.5]dec-9-ene-9-carboxamide]	27%
COCCN(C)CCNc1ccc(CN2C(=O)C(C(=O)Nc3ccc(C(F)(F)F)cc3-c3cc(C(F)(F)F)ncn3)=C(O)C3(CCCC3)N2C)c(F)c1F [Example 417, 7-(2,3-Difluoro-4-((2-((2-methoxyethyl)(methyl)amino)ethyl)amino)benzyl)-10-hydroxy-6-methyl-8-oxo-N-(4-(trifluoromethyl)-2-(6-(trifluoromethyl)pyrimidin-4-yl)phenyl)-6,7-diazaspiro[4.5]dec-9-ene-9-carboxamide]	48%
CN(C[C@H](O)[C@@H](O)[C@H](O)[C@H](O)CO)C(=O)CCCOc1ccc(CN2C(=O)C(C(=O)Nc3ccc(C(F)(F)F)cc3-c3cc(C(F)(F)F)ncn3)=C(O)C3(CCCC3)N2C)c(F)c1F [Example 418, 7-[[2,3-Difluoro-4-[4-[methyl-[(2S,3R,4R,5R)-2,3,4,5,6-pentahydroxyhexyl]amino]-4-oxobutoxy]phenyl]methyl]-10-hydroxy-6-methyl-8-oxo-N-[4-(trifluoromethyl)-2-[6-(trifluoromethyl)pyrimidin-4-yl]phenyl]-6,7-diazaspiro[4.5]dec-9-ene-9-carboxamide]	29%
CN1N(Cc2ccc(OCCOCCNCC(O)CO)c(F)c2F)C(=O)C(C(=O)Nc2ccc(C(F)(F)F)cc2-c2cc(C(F)(F)F)ncn2)=C(O)C12CCCC2 (stereo not drawn) [Example 419, 7-[[4-[2-[2-(2,3-Dihydroxypropylamino)ethoxy]ethoxy]-2,3-difluorophenyl]methyl]-10-hydroxy-6-methyl-8-oxo-N-[4-(trifluoromethyl)-2-[6-(trifluoromethyl)pyrimidin-4-yl]phenyl]-6,7-diazaspiro[4.5]dec-9-ene-9-carboxamide]	22%
CN(CCOCCOc1ccc(CN2C(=O)C(C(=O)Nc3ccc(C(F)(F)F)cc3-c3cc(C(F)(F)F)ncn3)=C(O)C3(CCCC3)N2C)c(F)c1F)C[C@H](O)[C@@H](O)[C@H](O)[C@H](O)CO [Example 420, 7-[[2,3-Difluoro-4-[2-[2-[methyl-[(2S,3R,4R,5R)-2,3,4,5,6-pentahydroxyhexyl]amino]ethoxy]ethoxy]phenyl]methyl]-10-hydroxy-6-methyl-8-oxo-N-[4-(trifluoromethyl)-2-[6-(trifluoromethyl)pyrimidin-4-yl]phenyl]-6,7-diazaspiro[4.5]dec-9-ene-9-carboxamide]	19%
CN(CCOCCOCCOCCOCCOc1ccc(CN2C(=O)C(C(=O)Nc3ccc(C(F)(F)F)cc3-c3cc(C(F)(F)F)ncn3)=C(O)C3(CCCC3)N2C)c(F)c1F)C[C@@H](O)[C@H](O)[C@@H](O)[C@@H](O)CO [Example 421, 7-[[2,3-Difluoro-4-[2-[2-[2-[2-[2-[methyl-[(2R,3S,4S,5S)-2,3,4,5,6-pentahydroxyhexyl]amino]ethoxy]ethoxy]ethoxy]ethoxy]ethoxy]phenyl]methyl]-10-hydroxy-6-methyl-8-oxo-N-[4-(trifluoromethyl)-2-[6-(trifluoromethyl)pyrimidin-4-yl]phenyl]-6,7-diazaspiro[4.5]dec-9-ene-9-carboxamide]	24%
CN(C[C@H](O)[C@@H](O)[C@H](O)[C@H](O)CO)C(=O)CCOCCOCCOc1ccc(CN2C(=O)C(C(=O)Nc3ccc(C(F)(F)F)cc3-c3cc(C(F)(F)F)ncn3)=C(O)C3(CCCC3)N2C)c(F)c1F [Example 422]	29%
CN(C[C@H](O)[C@@H](O)[C@H](O)[C@H](O)CO)C(=O)CCOCCOCCOCCOc1ccc(CN2C(=O)C(C(=O)Nc3ccc(C(F)(F)F)cc3-c3cc(C(F)(F)F)ncn3)=C(O)C3(CCCC3)N2C)c(F)c1F [Example 423]	5%
CN1N(Cc2ccc(OCCOCCOCCOCCC(=O)NCC(O)CO)c(F)c2F)C(=O)C(C(=O)Nc2ccc(C(F)(F)F)cc2-c2cc(C(F)(F)F)ncn2)=C(O)C12CCCC2 (stereo not drawn) [Example 424]	17%
CN(CCOCCC(=O)N(C)C[C@H](O)[C@@H](O)[C@H](O)[C@H](O)CO)CCOc1ccc(CN2C(=O)C(C(=O)Nc3ccc(C(F)(F)F)cc3-c3cc(C(F)(F)F)ncn3)=C(O)C3(CCCC3)N2C)c(F)c1F [Example 425]	5%
CN(CCOCCC(=O)NCC(O)CO)CCOc1ccc(CN2C(=O)C(C(=O)Nc3ccc(C(F)(F)F)cc3-c3cc(C(F)(F)F)ncn3)=C(O)C3(CCCC3)N2C)c(F)c1F (stereo not drawn) [Example 426]	24%
CN1N(Cc2ccc(OCCOCCNC(=O)[C@@H](O)[C@H](O)[C@@H](O)[C@@H](O)CO)c(F)c2F)C(=O)C(C(=O)Nc2ccc(C(F)(F)F)cc2-c2cc(C(F)(F)F)ncn2)=C(O)C12CCCC2 [Example 427, 7-[[2,3-Difluoro-4-[2-[2-[[(2S,3R,4S,5S)-2,3,4,5,6-pentahydroxyhexanoyl]amino]ethoxy]ethoxy]phenyl]methyl]-10-hydroxy-6-methyl-8-oxoN-[4-(trifluoromethyl)-2-[6-(trifluoromethyl)pyrimidin-4-yl]phenyl]-6,7-diazaspiro[4.5]dec-9-ene-9-carboxamide]	12%
CN1N(Cc2ccc(OCCOCCOCCOCCNC(=O)[C@@H](O)[C@H](O)[C@@H](O)[C@@H](O)CO)c(F)c2F)C(=O)C(C(=O)Nc2ccc(C(F)(F)F)cc2-c2cc(C(F)(F)F)ncn2)=C(O)C12CCCC2 [Example 428, 7-[[2,3-Difluoro-4-[2-[2-[2-[2-[[(2S,3R,4S,5S)-2,3,4,5,6-pentahydroxyhexanoyl]amino]ethoxy]ethoxy]ethoxy]ethoxy]phenyl]methyl]-10-hydroxy-6-methyl-8-oxo-N-[4-(trifluoromethyl)-2-[6-(trifluoromethyl)pyrimidin-4-yl]phenyl]-6,7-diazaspiro[4. 5]dec-9-ene-9-carboxamide]	14%
COCCN(C)CCOCCOc1ccc(CN2C(=O)C(C(=O)Nc3ccc(C(F)(F)F)cc3-c3cc(C(F)(F)F)ncn3)=C(O)C3(CCCC3)N2C)c(F)c1F [Example 429, 7-[[2,3-Difluoro-4-[2-[2-[2-methoxyethyl(methyl)amino]ethoxy]ethoxy]phenyl]methyl]-10-hydroxy-6-methyl-8-oxo-N-[4-(trifluoromethyl)-2-[6-(trifluoromethyl)pyrimidin-4-yl]phenyl]-6,7-diazaspiro[4.5]dec-9-ene-9-carboxamide]	41%
COCCN(C)CCOCCOCCOc1ccc(CN2C(=O)C(C(=O)Nc3ccc(C(F)(F)F)cc3-c3cc(C(F)(F)F)ncn3)=C(O)C3(CCCC3)N2C)c(F)c1F [Example 430]	29%
COCCN(C)CCOCCOCCOCCOc1ccc(CN2C(=O)C(C(=O)Nc3ccc(C(F)(F)F)cc3-c3cc(C(F)(F)F)ncn3)=C(O)C3(CCCC3)N2C)c(F)c1F [Example 431]	26%
COCCN(C)CCOCCOCCOCCOCCOc1ccc(CN2C(=O)C(C(=O)Nc3ccc(C(F)(F)F)cc3-c3cc(C(F)(F)F)ncn3)=C(O)C3(CCCC3)N2C)c(F)c1F [Example 432]	11%
CN1N(Cc2ccc(OCCNCCS(=O)(=O)O)c(F)c2F)C(=O)C(C(=O)Nc2ccc(C(F)(F)F)cc2-c2cc(C(F)(F)F)ncn2)=C(O)C12CCCC2 [Example 435, 2-[2-[2,3-Difluoro-4-[[10-hydroxy-6-methyl-8-oxo-9-[[4-(trifluoromethyl)-2-[6-(trifluoromethyl)pyrimidin-4-yl]phenyl]carbamoyl]-6,7-diazaspiro[4.5]dec-9-en-7-yl]methyl]phenoxy]ethylamino]ethanesulfonic acid]	11%
COCCN(C)CCOc1c(I)cc(CN2C(=O)C(C(=O)Nc3ccc(C(F)(F)F)cc3-c3cc(C(F)(F)F)ncn3)=C(O)C3(CCCC3)N2C)c(F)c1F [Example 437, 7-[[2,3-Difluoro-5-iodo-4-[2-[2-methoxyethyl(methyl)amino]ethoxy]phenyl]methyl]-10-hydroxy-6-methyl-8-oxo-N-[4-(trifluoromethyl)-2-[6-(trifluoromethyl)pyrimidin-4-yl]phenyl]-6,7-diazaspiro[4.5]dec-9-ene-9-carboxamide]	45%
COCCCN(C)C(=O)c1cc(CN2C(=O)C(C(=O)Nc3ccc(C(F)(F)F)cc3-c3cc(C(F)(F)F)ncn3)=C(O)C3(CCCC3)N2C)c(F)c(F)c1OCCN(C)CCOC [Example 438, 7-[[2,3-Difluoro-4-[2-[2-methoxyethyl(methyl)amino]ethoxy]-5-[3-methoxypropyl(methyl)carbamoyl]phenyl]methyl]-10-hydroxy-6-methyl-8-oxo-N-[4-(trifluoromethyl)-2-[6-(trifluoromethyl)pyrimidin-4-yl]phenyl]-6,7-diazaspiro[4.5]dec-9-ene-9-carboxamide]	33%
COCCOc1cc(NC(=O)C2=C(O)C3(CCCC3)N(C)N(Cc3ccc(OCCN(C)CCOC)c(F)c3F)C2=O)c(-c2ncnc(C(F)(F)F)c2C)cc1C(F)(F)F [Example 439, 7-[[2,3-Difluoro-4-[2-[2-methoxyethyl(methyl)amino]ethoxy]phenyl]methyl]-10-hydroxy-N-[5-(2-methoxyethoxy)-2-[5-methyl-6-(trifluoromethyl)pyrimidin-4-yl]-4-(trifluoromethyl)phenyl]-6-methyl-8-oxo-6,7-diazaspiro[4.5]dec-9-ene-9-carboxamide]	35%
